Test results reported in patent US8293774B2, “Optically active (R)-aryloxypropionic acid amides and herbicidal composition comprising same” (Kyung Nong Corporation, priority 2007, dated 2012).

How the values were obtained:
Assay in all cases: Weed control test, foliage treatment (Test Example 1, Table 7)
[1] = system: GLXMA (Glycine max(L.) MERR, soy bean); conditions: in vivo
Method: (§1) Seeds of rice, wheat, soy bean, barley, corn, common sorgum, barnyard grass, large crabgrass, creek grass, green foxtail and fall panicum were placed in sandy loam in 600 cm^2 pots and covered with soil. After keeping the pots in a greenhouse at 20 to 30° C. allowing growth of the plants to the 3-leaf stage of the barnyard grass, 2,000 l/ha of an emulsion obtained by diluting with water a mixture of 1 part by weight of a test compound, 5 parts by weight of acetone and 1 part by weight of an emulsifying agent (Tween 80, Junsei) was applied to the surface of the foliage of the plants. The plant damage at 10 days and 20 days after the foliage treatment was visually evaluated from the level of 1 to 100% by comparison with the untreated control: […]

[2] = system: HORVU (Hordeum vulgare L., barley); conditions: in vivo
Method: as §1

[3] = system: ORYSA (Oryza sativa cv. Dongjin, rice); conditions: in vivo
Method: as §1

[4] = system: TRZAW (Tritium aestivum L., wheat); conditions: in vivo
Method: as §1

[5] = system: DIGSA (Digitaria Sanguinalis (L.) SCOP, large crabgrass); format: in vivo; conditions: Digitaria sanguinalis, foliar, read-out: Plant damage (herbicidal activity), visually evaluated, DIGSA; for pest or weed control at 25 g/ha: 0.025 kg/ha; for pest or weed control at 100 g/ha: 0.1 kg/ha; for pest or weed control at 200 g/ha: 0.2 kg/ha
Method: as §1

[6] = system: SETVIR (Setaria viridis (L.) Beauv, green foxtail); format: in vivo; conditions: Setaria viridis, foliar, read-out: Plant damage (herbicidal activity), visually evaluated, SETVIR; for pest or weed control at 25 g/ha: 0.025 kg/ha; for pest or weed control at 100 g/ha: 0.1 kg/ha; for pest or weed control at 200 g/ha: 0.2 kg/ha
Method: as §1

[7] = system: ZEAMX (Zea mays L., corn); format: in vivo; conditions: Zea mays, foliar, read-out: Plant damage (herbicidal activity), visually evaluated, ZEAMX; for plant injury at 25 g/ha: 0.025 kg/ha; for plant injury at 100 g/ha: 0.1 kg/ha; for plant injury at 200 g/ha: 0.2 kg/ha
Method: as §1

[8] = system: SORBI (Andropogon sorghum, common sorgum); format: in vivo; conditions: Sorghum bicolor, foliar, read-out: Plant damage (herbicidal activity), visually evaluated, SORBI; for pest or weed control at 25 g/ha: 0.025 kg/ha; for pest or weed control at 100 g/ha: 0.1 kg/ha; for pest or weed control at 200 g/ha: 0.2 kg/ha
Method: as §1

[9] = system: PANDI (Panium dichotomiflorum Michx, fall panicum); format: in vivo; conditions: Panicum dichotomiflorum, foliar, read-out: Plant damage (herbicidal activity), visually evaluated, PANDI; for pest or weed control at 25 g/ha: 0.025 kg/ha; for pest or weed control at 100 g/ha: 0.1 kg/ha; for pest or weed control at 200 g/ha: 0.2 kg/ha
Method: as §1

[10] = system: ARTHIS (Arthraxon hispidus (Thunb.) Makino, creek grass); format: in vivo; conditions: Arthraxon hispidus, foliar, read-out: Plant damage (herbicidal activity), visually evaluated, ARTHIS; for pest or weed control at 25 g/ha: 0.025 kg/ha; for pest or weed control at 100 g/ha: 0.1 kg/ha; for pest or weed control at 200 g/ha: 0.2 kg/ha
Method: as §1

[11] = system: ECHOG (Echinoch crus-galli Beauv. var. caudata Kitagawa, barnyard grass); format: in vivo; conditions: Echinochloa crus-galli, foliar, 3-leaf stage, read-out: Plant damage (herbicidal activity), visually evaluated, ECHOG; for pest or weed control at 25 g/ha: 0.025 kg/ha; for pest or weed control at 100 g/ha: 0.1 kg/ha; for pest or weed control at 200 g/ha: 0.2 kg/ha
Method: as §1

SMILES | Plant damage (herbicidal activity), visually evaluated, GLXMA [1] | Plant damage (herbicidal activity), visually evaluated, HORVU [2] | Plant damage (herbicidal activity), visually evaluated, ORYSA [3] | Plant damage (herbicidal activity), visually evaluated, TRZAW [4] | pest or weed control at 25 g/ha [5] | pest or weed control at 100 g/ha [5] | pest or weed control at 200 g/ha [5] | pest or weed control at 25 g/ha [6] | pest or weed control at 100 g/ha [6] | pest or weed control at 200 g/ha [6] | plant injury at 25 g/ha [7] | plant injury at 100 g/ha [7] | plant injury at 200 g/ha [7] | pest or weed control at 25 g/ha [8] | pest or weed control at 100 g/ha [8] | pest or weed control at 200 g/ha [8] | pest or weed control at 25 g/ha [9] | pest or weed control at 100 g/ha [9] | pest or weed control at 200 g/ha [9] | pest or weed control at 25 g/ha [10] | further results
C[C@@H](Oc1ccc(Oc2ccc(C#N)cc2F)cc1)C(=O)Nc1nc2ccc(F)cc2s1 [Example 23, (R)-2-[4-(4-cyano-2-fluorophenoxy)phenoxy]propionic acid-N-(6-fluoro-2-benzothiazolyl)amide] | 0% | 0% | 0% | 0% | 0% | 20% | 20% | 0% | 0% | 20% | 10% | 90% | 90% | 0% | 20% | 20% | 0% | 0% | 10% | 0% | pest or weed control at 100 g/ha [10]: 0%; pest or weed control at 200 g/ha [10]: 10%; pest or weed control at 25 g/ha [11]: 20%; pest or weed control at 100 g/ha [11]: 50%; pest or weed control at 200 g/ha [11]: 50%
Cc1ccc2nc(N(C)C(=O)[C@@H](C)Oc3ccc(Oc4ccc(C#N)cc4F)cc3)sc2c1 [Example 26, (R)-2-[4-(4-cyano-2-fluorophenoxy)phenoxy]propionic acid-N-(6-methyl-2-benzothiazolyl)-N-methyl amide] | 0% | 0% | 0% | 0% | 0% | 0% | 0% | 0% | 0% | 0% | 10% | 10% | 30% | 10% | 20% | 35% | 0% | 0% | 0% | 0% | pest or weed control at 100 g/ha [10]: 0%; pest or weed control at 200 g/ha [10]: 0%; pest or weed control at 25 g/ha [11]: 0%; pest or weed control at 100 g/ha [11]: 0%; pest or weed control at 200 g/ha [11]: 0%
Cc1cc(NC(=O)[C@@H](C)Oc2ccc(Oc3ccc(C#N)cc3F)cc2)n(C)n1 [Example 29, (R)-2-[4-(4-cyano-2-fluorophenoxy)phenoxy]propionic acid-N-(1,3-dimethyl-5-pyrazolyl)amide] | 0% | 0% | 0% | 0% | 0% | 20% | 90% | 0% | 0% | 20% | 0% | 5% | 30% | 0% | 20% | 50% | 0% | 0% | 10% | 0% | pest or weed control at 100 g/ha [10]: 0%; pest or weed control at 200 g/ha [10]: 10%; pest or weed control at 25 g/ha [11]: 20%; pest or weed control at 100 g/ha [11]: 70%; pest or weed control at 200 g/ha [11]: 90%
C[C@@H](Oc1ccc(Oc2ccc(C#N)cc2F)cc1)C(=O)Nc1nccs1 [Example 31, (R)-2-[4-(4-cyano-2-fluorophenoxy)phenoxy]propionic acid-N-(2-thiazolyl)amide] | 0% | 0% | 0% | 0% | 0% | 20% | 70% | 0% | 70% | 70% | 20% | 90% | 90% | 0% | 20% | 50% | 0% | 20% | 20% | 0% | pest or weed control at 100 g/ha [10]: 70%; pest or weed control at 200 g/ha [10]: 70%; pest or weed control at 25 g/ha [11]: 0%; pest or weed control at 100 g/ha [11]: 50%; pest or weed control at 200 g/ha [11]: 90%
